Values of other authors, collected in patent US7385060B2, “Method for producing salts of tolperisone” (Sanochemia Pharmazeutika AG, priority 2002, dated 2008).

Key:
[1] = tested on: HMN; conditions: inhalation, human, 30 m
[2] = tested on: RAT; conditions: oral

In the case of `C=O` [formaldehyde], the “IHL-TCLO HMN” value [1] is listed as 17 mg/m^3/30 m and the “ORL-RAT LD50” value [2] is listed as 100 mg/kg.
